We go through one compound from US20240342138A1, “MICROTUBULE TARGETING AGENTS” (BPGbio, Inc., priority 2023, published 2024).

Read-outs that look alike come from different tables or passages of the source.

Assay [1] has as its system colchicine binding site of tubulin. In words: EBI labeling assay in MIA PaCa2 cells (Western blot). Format: cell-based. The following applies: 2 hours compound, then 2 hours 100 μM EBI, FIG. 2, FIG. 3.
Protocol: MIA PaCa2 cells were cultured in DMEM+10% FBS and 1% P/S. Cells were plated at 1.5-2×10^6 in 60 mm dishes. For drug treatments, cells were treated the day after plating with 0.1% DMSO or the compounds tested at the concentrations indicated in FIG. 2 for 2 hours.
• Cells were treated with compounds for 2 hours at 37°, 5% CO2 (in the cell culture incubator), and then for an additional 2 hours with 100 μM EBI (with compounds present) under the same conditions. • Cells were then harvested with Trypsin and pelleted at 500 g for 3 minutes. • Cells were rinsed in 1 mL PBS and transferred to clean epi tubes. […] BCA assay plates were incubated for 15 minutes in the 37-degree incubator in the outer molecular lab. • After protein normalization (including addition of reducing Laemmli buffer from a 6× stock) samples were boiled at 95 degrees for 3 minutes and frozen for subsequent Western Blotting.
Significance in difference of treated MIA PaCa-2 cells to 0.1% DMSO treated cells were tested by Student t test (* p<0.05; ** p<0.01; *** p<0.001).
Another assay has as its system HCT116 cells. Nature of the assay: Kinetochore assembly, immunocytochemistry / confocal microscopy. Format: cell-based. The following applies: 300 nM, 24h. As to the method: The HCT116 cells were cultured using DMEM media supplemented with 10% FBS and 1% Pen/Strep. Cells were maintained to a maximum of 80% confluency before being split and plated into coverslips in 12-well plates.
1. HCT116 cells were plated on Poly-D-Lysine German Glass Coverslips (#1.5, 18 mm)
2. After 24h cells were treated with 300 nM of Compound 1 and Nocodozole.
3. After 24h cells were washed briefly with PBS and fixed with warm 4% paraformaldehyde at room temperature for 10 min.
4. Cells were permeabilized and blocked in 10% goat serum, 0.5% Triton-X in PBS for 1 hr.
5. Cells were incubated with Primary antibodies overnight.
6. Washed 3× with PBS for 10 min
7. Incubated with secondary antibodies at room temperature for 1 hr.
8. Washed 3× with PBS for 10 min
9. Coverslips were mounted with ProLong Gold Anti-Fade Mount with DAPI and imaged with Olympus FV1200 MPE Microscope.
10. Images were collected with identical confocal settings for all of the samples and Z-stacked images were projected with maximal projection mode using Fluor View Software.
1. Selected cells of interest using the drawing/selection tools (i.e. rectangle, circle, polygon or freeform).
2. From the Analyze menu selected “Measure.”
3. Selected region with no fluorescence to be my background.
4. Repeated these steps for other cells in the field of view
5. Used the CTCF formula to calculate Mad1 expression:
CTCF=Integrated Density−(Area of selected cell×Mean fluorescence of background readings)
Micrographs were imaged using Olympus FV1200 MPE confocal microscope at 63× oil. White arrows indicate dividing cells. Representative images of N=3 biological replicates. Significance in difference of treated HCT116 cells to untreated cells was tested by Student t test (** p<0.01).

Assay [2] relates to Triple Negative Breast Cancer patient-derived organoids CTG-1520, CTG-0896, CTG-1017. In words: Viability of PDO models of taxane resistance (CellTiter-Glo, 5 days). Format: cell-based, human. The method, then: FIGS. 9A and 9B show potency of Compound 1 in patient-derived organoid (PDO) models of taxane resistance. Patient-derived organoids were treated with Compound 1, paclitaxel or controls (0.1% DMSO, positive control—10% DMSO) for 5 days. Viability was assessed using the CellTiter-Glo® assay. IC50 and maximal (max) inhibition values were extrapolated from the viability curves. A) Model overview and dose response curves to Compound 1 and paclitaxel. B) Summary of CellTiter-Glo results in all three models tested. Compiled data of N=4 replicates.
CTG-1520 and CTG-0896 were derived from Triple Negative Breast Cancer (TNBC) patients post-treatment, and progression on a taxane-based therapy and the models' resistance to paclitaxel was confirmed by testing in vivo PDX (Patient-derived xenograft) tumor growth. […] Compound 1 and paclitaxel were tested head-to-head in each model in a dose-curve setting. 10% DMSO was used as the positive control for induction of 100% cell cytotoxicity.

The test system of a further assay is A549 cells. In words: In vitro potency, ATPlite 1Step (NTRC Oncolines). The class given is cell-based. The following applies: Homo sapiens; for Emax: A549, A549, in vitro, biphasic, read-out: Maximum effect (%). The method, then:
FIG. 13A-13B show efficacy of Compound 1 in a lung adenocarcinoma xenograft model (A549). A) In vitro potency of Compound 1 in A549 cells as evaluated by ATPlite 1Step™ Perkin Elmer (performed by NTRC Oncolines). B) A549 cells (5×10^6) were implanted subcutaneously in athymic female nude mice and tumors were allowed to grow to a volume of ˜112 mm^3 followed by randomization of animals into three (3) groups (vehicle control, 75 mg/kg, 150 mg/kg Compound 1) with 12 animals per group. A Compound 1 solid dispersion was prepared prior to each dosing and administered by oral gavage two times a day (BID). Mean tumor volume of each group over time and the growth of tumor in each individual animal was graphed. For each individual animal of […] group TGI (%) was calculated based on the tumor growth inhibition of individual tumor at each given day of the study compared to the average of the group for that given day of the study. P-values were calculated using two-tailed distribution and two-sample equal variance (homoscedastic) for each group treated with Compound 1 for each given day of the study in reference to vehicle control. NS p>0.05; *p≤0.05; **p≤0.01; ***p p≤0.001; **** p≤0.0001.
A549 is a human lung adenocarcinoma cell line isolated from the lung tissue of their origin. […] A549 cells were implanted subcutaneously in nude mice and tumors were allowed to grow to an average volume of 112 mm^3 followed by randomization into three (3) groups consisting of vehicle control, 75 mg/kg and 150 mg/kg Compound 1 (12 animals per group). A Compound 1 solid dispersion was administered by oral gavage two times a day (BID). All animals remained in the study until Day 28 except one animal from Group 3 (Animal #29), which exited the study on Day 11 due to more than 20% body weight loss. This animal was excluded from all analysis. Data from Day 14-18 were excluded from the analysis due to inconsistencies in data collection methods.

As for `COc1ccccc1-c1nc(CNC(=O)c2ccccc2OC(F)F)n[nH]1` [Compound 1, 2-(difluoromethoxy)-N-[[5-(2-methoxyphenyl)-1H-1,2,4-triazol-3-yl]methyl]benzamide], in assay [1], the “Formation of EBI:β-tubulin adducts” value is on record as “inhibited the formation of EBI (N,N′-ethylene-bis(iodoacetamide)):β-tubulin adducts”. Moreover, the Mitotic spindle formation entry with HCT116 cells (FIG. 4A) is reported as “lack of proper mitotic spindle formation”. Moreover, the Mad1 signal intensity entry with HCT116 cells (FIG. 4B) is “increase in Mad1 signal intensity”. In addition, in assay [2] (CTG-1520, CTG-0896, CTG-1017, FIG. 9), the “Potency in PDO models” value is given as “potent in all three (3) PDO models tested”. Also, the “Retention of potency in matched PDO models” value in assay [2] (same patient before (CTG-1017) and after (CTG-1520) taxane-based chemotherapy) is “retained potency”. The Emax in the assay with A549 cells (at highest concentration tested) came to 100%; in the assay with A549 cells (first phase) it was 52%. The compound further had a half-inhibitory concentration (IC50) in the assay with A549 cells (A549, biphasic response, first phase) of 53 nM.
